From patent US8236750B2, “Composition comprising a pulmonary surfactant and a TNF-derived peptide” (Nycomed GmbH, priority 2004, dated 2012)

Test system: Male Wistar rats
Assay: Arterial blood oxygenation after repeated saline lung lavage in rats
Assay type: in vivo, rat
Settings: TIP 500 μg/animal alone, intratracheally, 1.2 mL in NaCl 0.9%; lung-lavaged rats; up to 150 min after administration
Procedure: Male Wistar rats were prepared as disclosed in Example 5. NaCl 0.9% (open circles), LUSUPULTIDE 12.5 mgPL/kg (filled squares), the circularized peptide […] (SEQ ID NO:3) (=TIP) 500 μg/animal (stars), or LUSUPULTIDE 12.5 mgPL/kg in combination with TIP 500 μg/animal (open squares) was administered intratracheally (administration volume 1.2 mL, solvent NaCl 0.9%). Arterial blood oxygenation (PaO2) was determined every 30 min up to 150 min after drug administration (t=210 min). […] Data are shown as mean ±SEM.*p<0.05, **p<0.01 versus LUSUPULTIDE 12.5 mgPL/kg
Male Wistar rats (230-280 g) were anaesthetized, catheterized to withdraw arterial blood, and ventilated with pure oxygen (=>PaO2˜500-550 mmHg). 30 min later lungs were ravaged 5-9 times with NaCl 0.9% (=>PaO2˜50-100 mmHg). After 60 min NaCl 0.9%, LUSUPULTIDE 12.5 mgPL/kg, TIP (500 μg/animal), or LUSUPULTIDE (12.5 mgPL/kg) in combination with TIP (500 μg/animal) was administered intratracheally (administration volume 1.2 mL, solvent NaCl 0.9%). Arterial blood oxygenation (PaO2) was determined every 30 min up to 150 min after drug administration (t=210 min).

CGQRETPEGAEAKPWYC [TIP]
Influence on arterial blood oxygenation (PaO2): no influence on oxygenation
